Data as given in patent publication US20030087014A1, “Enhanced thermal inactivation of pathogen in a nutriment by acidulant” (Mionix Corp., priority 2001, published 2003).

System: human skin
Test: Contact of acidic solution with human skin and nose
Settings: solution with a pH of less than 0.5

Question: `O=S(=O)(O)O` [sulfuric acid] was tested. Which “Irritation of hand put into the solution” value did it give?
Answer: Its value is “an irritation would occur within a relatively short span of time”.
